Laboratory results: patent US20040028714A1, “Composition having insect repellent characteristics” (priority 2000, published 2004)
Where “and” joins values, the source holds several entries; their conditions need not be identical. Identical values can stand only once.

Test system: German cockroaches (Blatella Germanica)
Test: Cockroach repellency in tray with half-treated vinyl, compared with DEET and N-methyl-neodecanamide (Example 3)
Assay type: in vivo
Conditions: 20 mg/m^2 on vinyl; for Number of Cockroaches present, Treated Section / Number of Cockroaches present, Untreated Section / Number of Cockroaches, Dead: single replicates (n = 50); for Number of Cockroaches present, Treated Section, Total / Number of Cockroaches present, Untreated Section, Total / Number of Cockroaches, Dead, Total: total of 4 replicates (200); for Percentage Dead / Percentage Present, Treated Section / Percentage Present, Untreated Section: cockroaches
Description: The effectiveness of compound 2 (example 1) as an insect repellent was determined using German cockroaches exposed to a formica surface partially treated/partially un-treated, and was directly compared to the repellency of the well known insect repellents DEET (N,N-diethyl-meta-toluamide) and N-methyl-neodecanamide. The study was conducted in an air conditioned laboratory at a temperature of 22°±2° C. under a normal day/night cycle, using German cockroaches (Blatella Germanica) of mixed sex and age. The study was conducted over a 7 days period and the repellent effectiveness was assessed 1, 3, 5 and 7 days after cockroach introduction. Each tray used in the study consisted of a melamine square tray of sides 1.8m×1.8m and 20 cm high walls. The upper part of the wall was provided with electrical strip, which prevented cockroaches escaping. A square of vinyl 90 cm×180 cm was treated with the test compound at 20 mg/m^2. This was achieved by soaking a paper wipe (Rag on a Roll, ca. 20 cm×20 cm) in a solution of the test compound in ethanol, squeezing out the excess liquid and wiping over the surface to give the required coverage. This was checked by weighing the cloth after application. The surface was allowed to dry. The treated vinyl square was placed in one half of the tray. A similar untreated square was placed in the other half of the tray. This square was treated with ethanol alone. Two sheets of formica (30 cm×30 cm) were placed at one corner of each tray, one on the treated surface and one on the untreated surface. This acted as a cockroach harbourage. The formica sheet to be used in the treated section was treated at the same rate as the treated formica. The formica was placed on two 1 cm high bottle tops to allow cockroaches access under the formica. 50 German cockroaches were added (15 adults and 35 nymphs) to the middle of the tray. No food and water was supplied for these cockroaches. At 1, 2, 3 and 7 days after cockroach introduction the number of cockroaches under each harbourage was counted. After each count the harbourage position was change to avoid the possibility of habituation to one location, the harbourages were replaced and new cockroaches were added to replace any dead cockroaches. The above was repeated 3 times to provide a total of 4 replicates.

[1] = 1 day after cockroach introduction
[2] = 2 days after cockroach introduction
[3] = 3 days after cockroach introduction
[4] = 7 days after cockroach introduction

CCNC(=O)C1CC(C)CCC1C(C)C (stereo not drawn) [Compound 2, N-ethyl-p-menthane-3-carboxamide]
cockroach repellency (in words) (over 7 days): excellent repellency
Number of Cockroaches present, Treated Section [1]: 0 (3×) and 3
Number of Cockroaches present, Untreated Section [1]: 50 (2×) and 49 and 47
Number of Cockroaches, Dead [1]: 0 (3×) and 1
Number of Cockroaches present, Treated Section, Total [1]: 3
Number of Cockroaches present, Untreated Section, Total [1]: 196
Number of Cockroaches, Dead, Total [1]: 1
Number of Cockroaches present, Treated Section [2]: 0 (3×) and 1
Number of Cockroaches present, Untreated Section [2]: 50 (2×) and 49 (2×)
Number of Cockroaches, Dead [2]: 0 (3×) and 1
Number of Cockroaches present, Treated Section, Total [2]: 1
Number of Cockroaches present, Untreated Section, Total [2]: 198
Number of Cockroaches, Dead, Total [2]: 1
Number of Cockroaches present, Treated Section [3]: 6 and 3 and 0 (2×)
Number of Cockroaches present, Untreated Section [3]: 44 and 47 and 50 and 49
Number of Cockroaches, Dead [3]: 0 (3×) and 1
Number of Cockroaches present, Treated Section, Total [3]: 9
Number of Cockroaches present, Untreated Section, Total [3]: 190
Number of Cockroaches, Dead, Total [3]: 1
Number of Cockroaches present, Treated Section [4]: 7 and 19 and 3 and 11
Number of Cockroaches present, Untreated Section [4]: 43 and 30 and 47 and 38
Number of Cockroaches, Dead [4]: 0 (2×) and 1 (2×)
Number of Cockroaches present, Treated Section, Total [4]: 40
Number of Cockroaches present, Untreated Section, Total [4]: 158
Number of Cockroaches, Dead, Total [4]: 2
Percentage Dead (1 day after treatment): 0.5%
Percentage Present, Treated Section (1 day after treatment): 1.5%
Percentage Present, Untreated Section (1 day after treatment): 98.0%
Percentage Dead (2 days after treatment): 0.5%
Percentage Present, Treated Section (2 days after treatment): 0.5%
Percentage Present, Untreated Section (2 days after treatment): 99.0%
Percentage Dead (3 days after treatment): 0.5%
Percentage Present, Untreated Section (3 days after treatment): 95.0%
Percentage Dead (7 days after treatment): 1.0%
Percentage Present, Treated Section (7 days after treatment): 20%
Percentage Present, Untreated Section (7 days after treatment): 79.0%
